Measured values: patent publication US8394776B2, “Use of ursolic acid saponin,oleanolic acid saponin in preparation of increasing leucocytes and/or platelet medicine” (Chengdu Di'Ao Jiuhong Pharmaceutical Factor, priority 2007, dated 2013)
Marks after values point to notes of the source that are not given here.

Key:
[1] = system: WBC; assay: 60Co-γ-induced leukopenia in mice: WBC; type: in vivo, Kunming mice
Description: In order to illustrate the present invention in detail, with a model induced by ^60Co-γ rays, the effects of G-1 and G-22 on leukocytes of chemotherapy-induced-leukopenia mice were compared. The specific operation and the results are as follows.
Healthy Kunming mice, of which half were male and the other half were female, were divided into 6 groups randomly, with 17-18 in each group. Blood was taken from caudal vein to determine the normal hemogram (leucocyte, erythrocyte, platelet and hemoglobin), and adjustments were made according to body weights and hemogram results. The normal control group and model group were given isometric physiological saline once a day for 7 days, and then the post-radiation hemogram was determined. Except the normal control group, other groups were each subjected to a whole body exposure to ^60Co-γ rays at a total dose of 3.0 Gy to prepare the models of leukopenia in mice, followed by further administration for 14 days. The G-CSF group was adminitrated through subcutaneous injection for 5 days from the irradiation day on and the hemogram was determined by taking blood respectively on day 3, day 7 and day 14 after irradiation.

[2] = system: leukocytes (WBC); assay: Cyclophosphamide-induced leukopenia in mice: leukocytes (WBC); type: in vivo, Kunming mice; details: 0.8 mg/kg; for leukocytes (WBC), Day1 after modeling: CY 100 mg/kg x 3 days
Experimental: (§1) Further, in vivo experiments were carried out on the compounds involved in the present invention using animal models of cyclophosphamide-induced leukopenia in mice. Experimental methods are briefed as follows: Healthy Kunming mice, of which half were male and the other half were female, were divided into groups, each group incuding 18 mice, and those mice weighing 18-22 g were selected and divided into groups randomly according to their body weights. Each group was given a different drug, wherein the negative control group and model control group were given physiological saline of the same volume, and the positive control group was treated with granulocyte colony-stimulating factors 40 μg/kg through subcutaneous injection (injection volume: 0.1 ml/10 g). After administration for 3 days, except the negative control group, other treatment groups were treated with 100 mg/kg cyclophosphamide (CY) through lumbar injection once a day for three days to cause a decrease of leukocytes in mice. A drop of blood (20 μl) was taken from posterior orbital venous plexus to detect the hemogram to observe the situation of leukocytes and platelets on day 1, day 3 and/or day 5 after the final lumbar injection of cyclophosphamide (i.e day 1, day 3 and/or day 5 after modeling) (Note: Each treatment group was administrated incessantly). The mice were killed on day 5 after the final lumbar injection of cyclophosphamide (i.e day 5 after modeling), and the leukocytes (WBC) and platelets (PLT) of the hemogram index were counted.
This experiment mainly studies the effect of G-1, G-6 and G-8 of ursolic acid saponin in increasing leukocytes, and compares the therapeutic effects of aglycon of ursolic acid and oleanolic acid and of the compound G-22 which has been disclosed by a patent.
(§2) The purpose of this experiment is to study the effect of G-1, G-3, G-11 and G-12 of ursolic acid saponin and oleanolic acid saponin in increasing platelets, and to observe whether G-11 and G-12 of oleanolic acid saponin have an effect in increasing leukocytes.

[3] = system: bone marrow mononuclear cell (BMMNC); assay: Monocytic proliferation in bone marrow of mice cultured in vitro (SRB method); type: cell-based, KunMing mice; details: 1 μg/ml; cultured 5 days; versus blank control
Description: 15-20 KunMing mice (purchased from Laboratory Animal Center of Zhengzhou University, Henan) of either sex were killed by cervical vertebral dislocation. Bilateral thighbones were isolated and caput femoris was cut off. The marrow was washed repeatedly with serum-free RPMI1640 (Gibco Corp.), the wash solution containing marrow cells was collected, sucked and blew repeatedly with a pipette to make the cells disperse. After standing for a moment, the supernatant was sucked up and centrifugated at 100 g for 3 min to collect the cell pellet. The cells were resuspended in a culture media and brought to a volume of 5 ml. The cell suspension was added to the upper layer of a centrifugal tube containing 5 ml of a lymphocyte separation medium of mice and centrifugated at 400 g for 30 min. The milk-white bone marrow mononuclear cell (BMMNC) layer in the middle of the interface was collected and washed with serum-free medium RPMI1640 for three times to obtain a BMMNC suspension, which was inoculated into a 96-well plate at forty thousand per well after counting. Positive drugs rhG-CSF (recombinant granulocyte colony-stimulating factor, manufactured by QI LU Pharmaceutical Co., LTD., Shandong) or test samples of different concentrations were added, and meanwhile a blank control group without drug was established. They were cultured in a 5% CO2 incubator at 37 for 5 days. Cell proliferation was measured by a conventional SRB (Sigma) method in which OD at 490 nm was measured after being dyed with SRB. The growth rates of cell proliferation after drug treatment were calculated (Growth rate of cell proliferation=experimental group-blank control group/blank control group*100%).

[4] = system: platelets (PLT); assay: Cyclophosphamide-induced leukopenia in mice: platelets (PLT); type: in vivo, Kunming mice; details: Experimental Example 3, 0.8 mg/kg
Experimental: as §1, §2

[5] = system: erythrocytes; assay: Comparison of hemolytic activities (HD50); type: cell-based, rabbit
Experimental: The test samples were dissolved in DMSO/physiological saline (1:4) as a solvent to generate the tested concentration gradients of 40, 80, 120, 160, 200 μg/ml. Blood (25 ml) was taken from a rabbit heart, poured into an erlenmeyer flask containing glass beads and shook gently for 10 min to remove fibrinogen so as to convert the blood into defidrinated blood. The resultant blood was transferred into a graduation centrifugal tube. About 10 times physiological saline was added, shook up and centrifuged at 2000 r/min for 5 minutes. The supernatant was removed, and the precipitated erythrocytes were washed with physiological saline again by the above method for 4 times until the supernatant was colorless and transparent. The resulant erythrocytes were prepared into a 10% suspension using physiological saline for testing. 250 μl of the 10% erythrocyte suspension was added into 2.5 ml of a tested sample, solvent (blank control) or distilled water (positive control), mixed thoroughly, and immediately placed in a thermotank maintained at 37° C. for incubation; and it was taken out 1 hour later and centrifuged at 3000 r/min for 5 minutes. The supernatant was taken for determining the OD value at 540 nm with a spectrophotometer. Hemolysis (Hemolysis Percentage)=(absorbance of sample−absorbance of blank control)×100%÷(absorbance of positive control-absorbance of blank control); and the data processing was performed by SPSS13.0 statistical software with drug concentration as an independent variable X and hemolysis as a dependent variable Y to obtain a linear regression equation; then, the drug concentration causing 50% hemolysis, i.e HD50, was calculated according to the equation. A P-value <0.05 was considered statistically significant.

[6] = system: leucocytes; details: administrated through abdominal cavity; 25, 50 and 100 mg/kg; effect obvious at high dose; cited from earlier work
[7] = 0.80 mg/kg i.g., 3.0 Gy whole body

C[C@H]1[C@H](C)CC[C@]2(C(=O)O[C@@H]3OC[C@H](O)[C@H](O)[C@H]3O)CC[C@]3(C)C(=CC[C@@H]4[C@@]5(C)CC[C@H](O[C@@H]6OC[C@H](O)[C@H](O)[C@H]6O)C(C)(C)[C@@H]5CC[C@]43C)[C@H]12 [Sample G-1, 3-O-(α-L-arabopyranosyl) ursolic acid-28-O-(α-L-arabopyranosyl) ester]
effect on leucocyte count of leukopenia mice (in words) ([1]; 0.80 mg/kg gastric perfusion, versus model group, day 7 and day 14 after irradiation): increased obviously
WBC, 1 week after administration ([1]; 0.80 mg/kg i.g. once a day for 7 days, before irradiation): 9.21 ± 2.16 109/L
WBC, Day 3 after irradiation [1, 7]: 2.06 ± 0.75 109/L
WBC, Day 7 after irradiation [1, 7]: 4.59 ± 1.52** 109/L
WBC, Day 14 after irradiation [1, 7]: 6.37 ± 1.54** 109/L
WBC, Normal ([1]; normal hemogram before administration (baseline), 0.80 mg/kg i.g. group): 8.96 ± 1.58 109/L
leukocytes (WBC), Day 3 after modeling ([2]; Experimental Example 2): 7.85 ± 3.00**★★
leukocytes (WBC), Day 5 after modeling ([2]; Experimental Example 2): 15.46 ± 10.44
leukocytes (WBC), Day1 after modeling ([2]; Experimental Example 2): 1.14 ± 0.56Δ
difference in increasing leukocytes compared with G-22 (in words) ([2]; Experimental Example 2, especially on day 3 after modeling): obvious difference in increasing leukocytes
effect in increasing leukocytes (in words) ([2]; Experimental Example 3): obvious effect in increasing leukocytes and platelets
leukocytes, Day 1 after modeling ([2]; Experimental Example 3): 0.98 ± 0.55
leukocytes, Day 5 after modeling ([2]; Experimental Example 3): 9.33 ± 5.17
difference in increasing leukocytes compared with G-22 (in words) ([2]; Experimental Example 3, day 5 after modeling): significant difference in increasing leukocytes and platelets
Growth Rate of Proliferation %, 1 μg/ml [3]: 31.3%
effect in increasing platelets (in words) [4]: obvious effect in increasing leukocytes and platelets
platelets, Day 1 after modelng [4]: 504.67 ± 117.81
platelets, Day 5 after modeling [4]: 413.00 ± 218.95*★★
difference in increasing platelets compared with G-22 (in words) ([4]; day 5 after modeling): significant difference in increasing leukocytes and platelets
HD50 (drug concentration causing 50% hemolysis) ([5]; 10% rabbit erythrocyte suspension, 37° C., 1 hour, from linear regression over 40-200 μg/ml): 345 µg/mL
tendency to cause hemolysis (in words) ([5]; comparison among G-1, G-3, G-6, G-8): the most difficult to cause hemolysis

C[C@H]1[C@H](C)CC[C@]2(C(=O)O)CC[C@]3(C)C(=CC[C@@H]4[C@@]5(C)CC[C@H](O)C(C)(C)[C@@H]5CC[C@]43C)[C@H]12 [Sample G-21, ursolic acid]
effect in increasing leukocytes (in words) ([2]; Experimental Example 2): no obvious effect in increasing leukocytes
leukocytes (WBC), Day 3 after modeling ([2]; Experimental Example 2): 3.94 ± 1.73
leukocytes (WBC), Day 5 after modeling ([2]; Experimental Example 2): 7.07 ± 3.14
leukocytes (WBC), Day1 after modeling ([2]; Experimental Example 2): 1.01 ± 0.47
effect in increasing leucocytes (in words) [6]: effective in increasing leucocytes
Growth Rate of Proliferation %, 1 μg/ml [3]: 7.9%

CC1(C)CC[C@]2(C(=O)O)CC[C@]3(C)C(=CC[C@@H]4[C@@]5(C)CC[C@H](O)C(C)(C)[C@@H]5CC[C@]43C)[C@@H]2C1 [Sample G-20, oleanolic acid]
effect in increasing leukocytes (in words) ([2]; Experimental Example 2): no obvious effect in increasing leukocytes
leukocytes (WBC), Day 3 after modeling ([2]; Experimental Example 2): 3.88 ± 2.01
leukocytes (WBC), Day 5 after modeling ([2]; Experimental Example 2): 7.00 ± 3.22
leukocytes (WBC), Day1 after modeling ([2]; Experimental Example 2): 0.99 ± 0.40
effect in increasing leucocytes (in words) [6]: effective in increasing leucocytes
Growth Rate of Proliferation %, 1 μg/ml [3]: 4.5%
